# Experimental data published in article PMC3958783, “Molybdenum Reduction to Molybdenum Blue in Serratia sp. Strain DRY5 Is Catalyzed by a Novel Molybdenum-Reducing Enzyme” (BioMed Research International, 2014).
# Read-outs that look alike come from different tables or passages of the source.
# Tests used:
# [1] = system: T1, Mo-reducing enzyme; test: initial rates of Mo blue formation, absorbance at […] nm, nonlinear regression; type: biochemical, Serratia sp. DRY5; conditions: assay 50 mM citrate phosphate pH 5.0, room temperature, read-out: apparent Km
# T1 construct: native protein purified from cytoplasmic fraction (Mono Q twice, Zorbax GF-250); monomer, 105 kDa by gel filtration, 100 kDa by SDS-PAGE
# [2] = target: T1, Mo-reducing enzyme; test: Mo blue formation assay, […] nm; type: biochemical, Serratia sp. DRY5; conditions: general reagent, assay with 12-MP and NADH; for IC50: read-out: Concentrations which decrease enzyme activity by 50%
compound,measurement,setting,value
12-MP,Km,"[1]; 5 mM NADH, electron acceptor",3870 µM
OCCS [2-Mercaptoethanol],IC50,[2]; thiol,5 mM
OC(CS)C(O)CS (stereo not drawn) [DTT],IC50,[2]; thiol,10 mM
O=C(O)CN(CCN(CC(=O)O)CC(=O)O)CC(=O)O [EDTA],IC50,[2]; metal chelator,0.1 mM
NC(=O)C1=CN([C@@H]2O[C@H](COP(=O)(O)OP(=O)(O)OC[C@H]3O[C@@H](n4cnc5c(N)ncnc54)[C@H](O)[C@@H]3O)[C@@H](O)[C@H]2O)C=CC1 [NADH],Km,"[1]; 15 mM 12-MP, electron donor",790 µM
CCCCCCCCCCCCOS(=O)(=O)O [SDS],Concentrations which decrease enzyme activity by 50%,[2]; denaturing detergent,0.1%
